Tests used:
TrkB receptor = target: T1, TrkB receptor (Mus musculus, UniProt P15209); test: Western blotting of p-TrkB and t-TrkB in primary cortical neuron cells; format: cell-based; settings: for Relative intensity of p-TrkB/t-TrkB protein: 10 min at 37° C., Vehicle = 100, n = 3
T1 construct: The culture continued until the primary cortical neuron cells mature; endogenous in cells; host or cells: primary cortical neurons from E18 mouse embryos (N171-82Q WT male x B6C3F1/J female)
Description: (§1) N171-82Q WT male mice were mated with female B6C3F1/J hybrid mice. B6C3F1/J mice 18 days after pregnancy were anesthetized with isoflurane and dissected to remove embryos, which were then placed in a 10 cm Petri dish containing Leibovitz's buffer. The head of the embryo was cut off, and the brain was peeled off to obtain the whole mouse brain, which was then placed in a new 10 cm Petri dish containing Leibovitz's buffer. The neurocortex of the brain was separated and placed in a 15 mL centrifuge tube containing 3 mL Leibovitz's buffer. The centrifuge tube was centrifuged at 1000 rpm for 1 minute, and the Leibovitz's buffer was gently removed from the centrifuge tube, and then 750 μL of 0.25% trypsin-EDTA and 75 μL of 0.1% DNase (2000 U/mL) were added to digest at 37° C. for 15 min. 750 μL of DMEM medium containing 5% FBS was added to stop the digestion. The cells were mixed well, and centrifuged at 1000 rpm for 5 minutes. Trypins/DNase mixture was removed, and 750 μL of Neurobasal medium (B-27, Glutamax, P/S) was added. The cells were mixed by gently pipetting with a pipette for 30 times. The cell suspension was filtered with a 40 µm filter and transferred to another new 50 mL centrifuge tube. 10 μL of the cell suspension was added to 90 μL of DMEM (diluted 10 times), and 10 μL of the liquid mixture was placed on a hemocytometer so that the suspension filled between the cover slip and the counting plate for counting. The cells in the four large grids of the plate were counted, wherein for the cells across the line, only the cells on the left and upper side lines were counted. The following formulas were used:
(§2) Number of cells/mL=total number of cells in the four large grids/4×10^4/mL
(§3) Total number of cells/mL=total number of cells in the four large grids/4×10^4/mL×dilution factor.
(§4) After counting, the cells were diluted with Neurobasal selection medium so that 1 mL of Neurobasal culture medium contained 0.5×10^6 cells.
(§5) 200 μL of PDL solution previously heated in a 37° C. water bath was added to each well of a 6-well plate, and incubated at 37° C. overnight to allow PDL to evenly coat the well plate. The PDL solution was absorbed and the plate was washed twice with PBS. Before use, the PBS remaining on the plate was absorbed and the cover was opened to dry the plate in a super clean bench. 2 mL of cell suspension was added to each well (37° C., 5% CO2), and the cells were cultured until adherence. The culture medium was replaced and the culture continued for 3 days, and then the growth status of neurons was observed. Every other 3 days, half of the medium was removed and replaced with fresh complete medium. The culture continued until the primary cortical neuron cells mature (usually mature on the 14th day of culture).
(§6) After the primary cortical neuron cells have matured, appropriate amount of freshly prepared culture medium was added until final volume in each well was 2 mL. The experiment included a blank control group (Vehicle), a positive control group BDNF (10 ng/mL), a control compound group (500 nM), and 6 test compound groups (500 nM). Three repeats were set for each dose. After incubating at 37° C. for 10 min, the culture solution was discarded and the cells were washed with pre-chilled PBS, and then 40 μL of pre-chilled lysate (RIPA buffer 10 mL and protease and phosphatase inhibitor 100 μL) was added to each well for lysis on ice for 30 min. After lysis, the cell was crushed by ultrasonic cell crusher, centrifuged at 14000 rpm for 20 min at 4° C. The supernatant was transferred to a new 1.5 mL centrifuge tube to extract protein. Western blotting experiments were used to detect the protein levels of (A) p-TrkB and t-TrkB; (B) p-AKT and t-AKT.
(§7) The software Sigmaplot 13.0 was used for statistical analysis of the data, and the data of each group was expressed as mean±standard error (x±SEM). […]

AKT signaling pathway = test: Western blotting of p-AKT and t-AKT in primary cortical neuron cells; format: cell-based, mouse; settings: 10 min at 37° C., Vehicle = 100, n = 3
Description: as §1, §2, §3, §4, §5, §6, §7

Phospho-Akt S473 = test: ELISA analysis of Phospho-Akt S473 in primary cortical neuron cells; format: cell-based, mouse; settings: 10 min at 37° C.
Description: The primary cortical neuron cells were cultured in the same way as in Example 21, and after maturity, appropriate amount of freshly prepared culture medium was added until final volume in each well was 2 mL. The experiment included a blank control group (Vehicle), a positive control group BDNF (10 ng/mL), a control compound group (500 nM), and 6 test compound groups (500 nM). Three repeats were set for each dose. After incubating at 37° C. for 10 min, the culture solution was discarded and the cells were washed with pre-chilled PBS, and then 40 μL of pre-chilled lysate (RIPA buffer 10 mL and protease and phosphatase inhibitor 100 μL) was added to each well for lysis on ice for 30 min. After lysis, the cell was crushed by ultrasonic cell crusher, centrifuged at 14000 rpm for 20 min at 4° C. The supernatant was transferred to a new 1.5 mL centrifuge tube to extract protein. The p-Akt ELISA experiment quantitatively detected the intracellular p-Akt protein level.
A series of p-Akt standard solutions with different concentrations were prepared, and the absorbance value was measured to make a standard curve. Phospho-Akt1 (Ser473) sandwich ELISA kit was purchased from Cell Signaling Technology (catalog number 7160). The antibody was coated in a 96-well plate at 4° C. overnight and was washed. The coated plate was blocked with 2% bovine serum albumin (BSA), and after sufficient washing, 100 μL of sample diluent (supplied in the kit) was added to each well to dilute the extracted protein. The plate was incubated overnight at 4° C. After washing 4 times with 200 μL of washing buffer (supplied in the kit), 100 μL/well of detection antibody was added and the plate was incubated at 37° C. for 1 hour. After 4 washes, 100 μL of HRP-conjugated secondary antibody (supplied in the kit) was added and the plate was incubated at 37° C. for 30 minutes. After the final wash, 100 μL of TMB substrate was added to each well and the plate was incubated at 37° C. for 10 minutes. TMB was use as a substrate to detect the signal, since TMB can be oxidized to produce a blue solution. The reaction was stopped by adding 100 μL/well stop solution, and the test result can remain stable within one hour after the stop of the reaction. The value of each well at 450 nm and 650 nm was detected using a microplate reader. The optical density (OD) was determined by subtracting the reading at 650 nm (disturbance from the solution itself) from the reading at 450 nm. According to the OD value corresponding to the standard curve, the p-Akt concentration in each well was obtained.
the data of each group was expressed as mean standard error (x±SEM). The ratio of the detection results of each positive control group (BNDF), control compound group (the same control compound as in Example 21) and each test compound group to the blank control group was used as an indicator to compare the p-Akt test results of the positive control group, control compound group, and each test compound group. One-way ANOVA and LSD post-hoc test were used to compare the measurement data among multiple groups, and P<0.05 was considered statistically significant.

[1] = tested on: rats with permanent cerebral ischemia; test: Neurobehavioral scoring in rats with permanent cerebral ischemia (MCAO thread plug); format: in vivo, SD rats; settings: 0.078 mg/kg intravenous
Description: (§8) SD rats, male, about 220-250 g, were provided by the Experimental Animal Center of Medical College of Xi'an Jiaotong University. Rats were randomly divided into groups of 14 animals/group. The experiment included a sham group, a model group, a positive control Edaravone group and test compound groups 1-5.12 hours before the operation, the rats were fasted and were free to drink water, and then used for the modeling method of middle cerebral artery occlusion with thread plug. The rats were fixed on a wooden board after anesthesia, the common carotid artery was ligated proximally, the external carotid artery was ligated distally, and the main internal carotid artery into skull was retained. A ligature line was reserved at the bifurcation of the internal carotid artery for temporarily clamping the distal end of the internal carotid artery using an arterial clip. A 3-0 nylon thread with a length of 5 cm and a spherical shape with a diameter of 0.3 mm at the tip was inserted into the common carotid artery through a small incision at the bifurcation. The arterial clamp was loosened, and the thread plug was slowly advanced to 18˜20 mm. When there was resistance, the progress of the thread was stopped. At this time, the nylon thread plug entered the middle artery and blocked the blood flow, and then the ischemic phase began. The skin was sutured. In the sham operation group, the same procedure was executed, except that no thread plug was inserted.
(§9) Administering was performed at 0 h, 3 h, 6 h and 12 h after ischemia, and then administering was performed once a day for 7 consecutive days. The test compound was prepared into a 4 mg/mL solution with 1% CMC-Na solution and administered by gavage. The edaravone group received an intravenous dose of 0.078 mg/kg.
2) The rats were lifted at its tail about 1 foot off the ground to observe the condition of both forelimbs. The rats were placed on a level ground and pushed on both shoulders to observe the difference in resistance on both sides. The rats were placed on the ground to observe the walking. The assessment was conducted using a five-grade four-point scoring method (0 to 4 points). The higher the score, the more severe the neurobehavioral damage.
0 point: the behavior is completely normal;
1 point: when the rat is lifted at its tail off the ground, the forelimb on the opposite side of the operation rotates and folds inwardly.
2 points: when the rat is placed on a level ground and pushed on both shoulders to observe the difference in resistance on both sides, the resistance on the opposite side of the operation reduces;
3 points: when the rat is placed on the ground to the walking, it circles around the opposite side of the operation;
4 points: The injury is so severe that the rat is unable to move independently.
(§10) (2) Statistical analysis of data: SPSS18.0 statistical software was used for statistical analysis and the data of each group was expressed as the mean standard error (x±SEM). One-way ANOVA and multiple comparisons between groups were used to compare the averages of measurement data among multiple groups. Rank score test was used for behavioral grading data, and Kaplan-Meier method was used for mortality. P<0.05 was considered statistically significant.

[2] = tested on: rats with permanent cerebral ischemia; test: Cerebral infarction volume by TTC staining in rats with permanent cerebral ischemia; format: in vivo, SD rats; settings: 0.078 mg/kg intravenous, after 7 days of ischemia
Description: as §8, §9
3) Percentage of cerebral infarction volume after 7 days of ischemia: TTC staining was used to observe the infarct area.
The rats in each group were sacrificed by spinal dislocation […]. The brain tissue was quickly peeled off and placed in the refrigerator at −20° C. to freeze to an appropriate hardness to remove the olfactory bulb, cerebellum and low brain stem. Continuous coronary slices were performed at 1 mm intervals, to obtain a total of 5 slices. The slices were placed in 0.5% triphenyltetrazolium chloride (TTC) in phosphate buffer (pH=7.4) and incubated in a 37° C. incubator without light for 15 min, and then fixed in paraformaldehyde and observed (fixed time should be within 24 h). The normal brain tissue is rosy red, and infarcted brain tissue is pale. After taking the picture, the slice was scanned to save the image. The area of cerebral infarction and the total area of slices were calculated using Image J processing software.
Cerebral infarction volume (%)=(volume of the contralateral hemisphere of the operation−volume of the uninfarcted portion of the hemisphere of the occlusion)/volume of the contralateral hemisphere of the operation×100%
as §10

T1 sequence (P15209 32-821): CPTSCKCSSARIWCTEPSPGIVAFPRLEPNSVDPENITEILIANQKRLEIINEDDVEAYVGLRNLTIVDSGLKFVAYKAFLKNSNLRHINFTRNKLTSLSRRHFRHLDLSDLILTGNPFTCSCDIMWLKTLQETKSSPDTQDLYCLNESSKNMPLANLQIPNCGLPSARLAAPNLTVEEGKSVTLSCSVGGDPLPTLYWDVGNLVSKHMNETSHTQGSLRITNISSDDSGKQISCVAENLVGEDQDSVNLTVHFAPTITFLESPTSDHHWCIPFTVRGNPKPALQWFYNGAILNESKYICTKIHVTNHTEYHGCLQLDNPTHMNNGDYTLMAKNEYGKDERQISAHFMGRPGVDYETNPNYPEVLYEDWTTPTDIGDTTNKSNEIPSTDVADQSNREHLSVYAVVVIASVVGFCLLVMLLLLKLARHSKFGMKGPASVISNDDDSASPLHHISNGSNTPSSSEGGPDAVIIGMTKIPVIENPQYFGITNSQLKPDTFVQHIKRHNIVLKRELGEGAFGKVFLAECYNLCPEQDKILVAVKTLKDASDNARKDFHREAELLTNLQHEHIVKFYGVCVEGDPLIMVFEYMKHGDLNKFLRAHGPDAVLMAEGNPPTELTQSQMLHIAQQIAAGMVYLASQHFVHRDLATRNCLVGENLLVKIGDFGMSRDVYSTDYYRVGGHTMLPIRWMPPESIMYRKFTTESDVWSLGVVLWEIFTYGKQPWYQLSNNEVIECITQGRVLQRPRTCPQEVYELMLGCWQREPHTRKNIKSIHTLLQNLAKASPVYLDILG

O=c1cc(-c2ccc(N3CCOCC3)cc2)oc2c(O)c(O)ccc12 [Control compound, reference compound]
Relative intensity of p-TrkB/t-TrkB protein (TrkB receptor; 500 nM): 138.890 ± 15.547
Relative intensity of p-AKT/t-AKT protein (AKT signaling pathway; 500 nM): 147.748 ± 4.832
Relative content of p-Akt protein (ELISA, ratio to blank control group) (Phospho-Akt S473; 500 nM): 138.33±2.08%

CC1=NN(c2ccccc2)C(=O)C1 [Edaravone, reference compound]
Neurobehavioral score (0 to 4 points) ([1]; 6 h after ischemia): 2 ± 0.18
Neurobehavioral score (0 to 4 points) ([1]; 1 d after ischemia): 2.36 ± 0.29
Neurobehavioral score (0 to 4 points) ([1]; 2 d after ischemia): 2.89 ± 0.31
Neurobehavioral score (0 to 4 points) ([1]; 3 d after ischemia): 2.38 ± 0.37
Neurobehavioral score (0 to 4 points) ([1]; 4 d after ischemia): 2 ± 0.33
Neurobehavioral score (0 to 4 points) ([1]; 5 d after ischemia): 2.14 ± 0.46
Neurobehavioral score (0 to 4 points) ([1]; 6 d after ischemia): 2 ± 0.31
Neurobehavioral score (0 to 4 points) ([1]; 7 d after ischemia): 1.67 ± 0.21
Volume percentage of cerebral infarction [2]: 33.50 ± 7.21%

[2H]c1c(-c2ccc(N3CCCCC3)cc2)oc2c(O)c(O)ccc2c1=O [Example 7, 3-deutero-7,8-dihydroxy-2-(4-(piperidin-1-yl)phenyl)-4H-chromen-4-one]
Relative intensity of p-TrkB/t-TrkB protein (TrkB receptor; 500 nM): 218.156 ± 12.556
Relative intensity of p-AKT/t-AKT protein (AKT signaling pathway; 500 nM): 220.514 ± 3.476
Relative content of p-Akt protein (ELISA, ratio to blank control group) (Phospho-Akt S473; 500 nM): 218.33±2.31%

B1: BDNF: Brain-derived neurotrophic factor, positive control, purchased from Peprotech (protein, UniProt P23560 19-247, looked up)
Neurotrophic factor BDNF …: APMKEANIRGQGGLAYPGVRTHGTLESVNGPKAGSRGLTSLADTFEHVIEELLDEDQKVRPNEENNKDADLYTSRVMLSSQVPLEPPLLFLLEEYKNYLDAANMSMRVRRHSDPARRGELSVCDSISEWVTAADKKTAVDMSGGTVTVLEKVPVSKGQLKQYFYETKCNPMGYTKEGCRGIDKRHWNSQCRTTQSYVRALTMDSKKRIGWRFIRIDTSCVCTLTIKRGR
Increase of relative intensity of p-TrkB compared with Vehicle group (TrkB receptor; BDNF 10 ng/mL): 2.74 times
Relative intensity of p-TrkB/t-TrkB protein (TrkB receptor; BDNF 10 ng/mL): 274.260 ± 8.047
Relative intensity of p-AKT/t-AKT protein (AKT signaling pathway; BDNF 10 ng/mL): 229.306 ± 3.912
Relative content of p-Akt protein (ELISA, ratio to blank control group) (Phospho-Akt S473; BDNF 10 ng/mL): 231%

Source: patent US20200390755A1, “COMPOUND FOR TREATING NERVOUS SYSTEM DISEASES AND USE THEREOF” (SHAANXI MICOT TECHNOLOGY CO., LTD., priority 2018, published 2020)
